Experiments:
[1] = biological target: Human immunodeficiency virus type 1 integrase (Human immunodeficiency virus 1, UniProt Q7ZJM1); assay: Inhibitory concentration against HIV-1 integrase
[2] = Antiviral activity against HIV-1 1 early replicative steps in HeLa-bgal- CD4+ (P4) reporter cells; type: functional; conditions: Human immunodeficiency virus 1

Human immunodeficiency virus type 1 integrase, sequence (Q7ZJM1 whole entry): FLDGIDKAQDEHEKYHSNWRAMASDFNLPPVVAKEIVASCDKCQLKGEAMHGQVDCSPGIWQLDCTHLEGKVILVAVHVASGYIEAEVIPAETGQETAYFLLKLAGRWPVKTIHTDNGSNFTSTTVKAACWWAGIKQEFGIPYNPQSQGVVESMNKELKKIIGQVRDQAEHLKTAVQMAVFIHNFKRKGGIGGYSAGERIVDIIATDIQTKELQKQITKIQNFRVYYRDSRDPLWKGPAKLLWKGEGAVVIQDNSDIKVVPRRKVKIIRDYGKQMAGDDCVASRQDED

Row | IC50 [1] | EC50 [2] | SMILES
1 | 1 µM | 31 µM | O=C(O)/C=C/c1ccc(O)c(Oc2cc3cc(O)c(O)cc3oc2=O)c1
2 | 2 µM | 37 µM | O=C(O)/C=C/c1ccc(Oc2cc3cc(O)c(O)cc3oc2=O)c(O)c1
3 | 2 µM | 12 µM | O=c1oc2cc(O)c(O)cc2cc1O

Source: ChEMBL document CHEMBL1143646, “Synthesis and HIV-1 integrase inhibitory activities of caffeic acid dimers derived from Salvia officinalis” (Bioorg Med Chem Lett, 2005)
